Results from patent EP1379634B1 (THE UNIVERSITY OF GEORGIA RESEARCH FOUNDATION, INC., priority 2001, dated 2002).
Residues, ends and D or L forms follow the SMILES beside them. *: point of attachment. Cbz = O=C(OCc1ccccc1)*; CH2F = FC*

Columns and labels:
[1] = test system: Taenia crassiceps cysts; assay: Short-term protection of BALB/c mice from cysticercosis infection; type: in vivo; conditions: repeat study, BALB/c mice
[2] = test system: Taenia crassiceps cysts; assay: Scanning electron microscopy of cyst surfaces removed from treated mice; type: in vivo; conditions: cysts removed from treated BALB/c mice
Source text: • Figure 1. Free energy diagrams for various profiles and scenarios of enzyme catalysis; from Murphy, 1995. Biochemistry. 34(14):4507-4510: (a) Free energy diagrams for different concentrations of substrate S in catalyzed and in uncatalyzed reactions. Left panel: Profile I. S<Km such that enzyme is in a "loose" binding configuration with substrate. Right panel: Profile II. S>Km such that the enzyme is in a "tight" binding configuration with the substrate. Nomenclature below the figure indicates derivation of various free energy constants which are referred to in the text. […] In this scenario, the transition state is decreased from TSC1 to TSC2 resulting in a net increase of ΔGB from situation 1 to situation 2. […] Since ΔGES is unchanged in this plot, 100% of the additional binding energy is utilized for catalysis. This property and the increase in ΔAGb is the definition of a catalytic event driven by transition state stabilization, with the latter being the defining catalytic parameter; (c) free energy diagram for catalysis driven by ground state destabilization for a Profile II scenario where ES is decreased and TSC is not changed. From the left panel to the right panel, ES is decreased, whereas TS remains unchanged. Consequently, ΔΔGb remains constant although catalysis is noted (thus the free energy of enzyme/transition state binding is unchanged). […]

[3] = biological target: T1, Cathepsin H (Homo sapiens, UniProt P09668); assay: Selectivity test (Steps VI and IX), Cathepsin H; type: biochemical; conditions: vehicle 4 X 10^-5 M; pH 6.8, substrate L-R-AFC; 40 µM
T1 sequence (P09668 98-335): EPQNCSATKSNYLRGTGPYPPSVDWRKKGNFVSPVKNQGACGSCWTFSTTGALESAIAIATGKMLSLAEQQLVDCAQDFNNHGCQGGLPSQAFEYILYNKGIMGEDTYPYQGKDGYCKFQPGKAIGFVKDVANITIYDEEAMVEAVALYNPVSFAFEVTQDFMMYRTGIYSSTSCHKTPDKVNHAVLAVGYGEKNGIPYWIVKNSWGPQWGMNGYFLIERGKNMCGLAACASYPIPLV
Description: In order to perform the assay, the vehicle (for Step VI) or inhibitor (for Step IX) were incubated with the appropriate substrate in the correct assay buffer and allowed to equilibrate. Subsequently, the protease was added, and the assay was allowed to incubate for an appropriate time. The concentrations used in this experiment were as follows: Vehicle was set up at 4 X 10^-5 M in final assay buffer; Inhibitor was set up at 3 X 10^-10 M in the final assay buffer. Preferably the dosages employed should be the minimal amount of vehicle or inhibitor necessary to induce inhibition. […] Substrates were set up based upon the preferred substrate for cleavage of the particular enzyme.
Positive controls were set up similarly as described for test controls, except that a solvent blank was added in substitution for the inhibitor or vehicle (in a volume equal to the volume of inhibitor or vehicle addition). All of the inhibitors and vehicles could be dissolved in dimethylsulfoxide (DMSO), and therefore, this was the solvent of choice. Negative controls were set up by adding the inhibitor or vehicle and the preferred substrates in a tube without the protease. […]
Percent inhibition was calculated as: %Inhibition = ((AFC positive for "SI"−AFC negative for "SI")−(AFC test−AFC negative for "SI"))/(AFC positive for "SI"−AFC negative for "SI") × 100 [formula] […]

Compound	protection from cysticercosis infection, subsequent identical prophylactic experiment [1]	Immune cells observed by SEM on cyst surfaces [2]	% inhibition [3]
CC(C)C[C@H](NC(=O)OCc1ccccc1)C(=O)N[C@@H](CC(C)C)C(=O)N[C@@H](Cc1ccc(O)cc1)C(=O)CF [Z-LLY-FMK, Z-Leu-Leu-Tyr-FMK] (Cbz-Leu-Leu-Tyr-CH2F)	75%-90%	presence of adherent immune cells	–
Mu-Leu-Tyr-AFC [Mu-LY-AFC]	–	–	0%
